What follows are compounds tested against T1, N-terminally GST-tagged human full length recombinant Mps-1 kinase (Homo sapiens, UniProt P33981) (assay: Mps-1 kinase assay (TR-FRET)). Settings: Mps1 IC50 [nM], 10 μM ATP, 1 μM peptide substrate, 60 min at 22° C.
T1 construct: N-terminally GST-tagged human full length recombinant Mps-1 kinase; purchased Invitrogen, Karslruhe, Germany PV4071
T1 sequence (P33981 1-857): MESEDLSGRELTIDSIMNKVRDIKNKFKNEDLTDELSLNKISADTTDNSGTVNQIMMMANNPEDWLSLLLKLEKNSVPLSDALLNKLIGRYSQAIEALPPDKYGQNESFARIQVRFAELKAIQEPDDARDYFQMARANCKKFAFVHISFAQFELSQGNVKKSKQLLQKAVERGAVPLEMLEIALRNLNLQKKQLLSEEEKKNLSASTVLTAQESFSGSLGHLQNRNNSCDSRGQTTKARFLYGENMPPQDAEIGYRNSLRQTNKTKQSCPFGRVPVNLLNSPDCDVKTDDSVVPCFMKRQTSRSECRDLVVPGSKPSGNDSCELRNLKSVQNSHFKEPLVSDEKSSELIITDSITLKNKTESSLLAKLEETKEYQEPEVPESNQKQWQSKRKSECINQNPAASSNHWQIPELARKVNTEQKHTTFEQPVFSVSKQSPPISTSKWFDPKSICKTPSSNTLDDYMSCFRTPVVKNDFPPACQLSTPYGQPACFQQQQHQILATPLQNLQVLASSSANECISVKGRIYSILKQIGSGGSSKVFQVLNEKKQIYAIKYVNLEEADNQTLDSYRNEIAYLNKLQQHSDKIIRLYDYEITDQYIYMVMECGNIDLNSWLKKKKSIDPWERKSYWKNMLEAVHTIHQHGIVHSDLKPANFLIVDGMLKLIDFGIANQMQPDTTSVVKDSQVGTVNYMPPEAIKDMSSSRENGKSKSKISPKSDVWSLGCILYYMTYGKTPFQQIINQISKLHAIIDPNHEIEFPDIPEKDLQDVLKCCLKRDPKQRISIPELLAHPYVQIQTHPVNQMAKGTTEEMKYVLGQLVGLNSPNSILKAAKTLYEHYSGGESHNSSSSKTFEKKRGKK
Type: biochemical
Summary of the method: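 Inhibition of Mps-1 (N-terminal GST fusion, full length) toward a biotinylated peptide is read as Eu-to-XLent TR-FRET. Enzyme level, around 1 nM final, follows lot activity.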

IC50	SMILES
0.4 nM	COc1ccc(Nc2cc(NCC(C)(C)O)c3ncc(-c4ccc(C(=O)NC5CC5)c(C)c4)n3n2)cc1F [Example 353, N-cyclopropyl-4-{6-[(3-fluoro-4-methoxyphenyl)amino]-8-[(2-hydroxy-2-methylpropyl)amino]imidazo[1,2-b]pyridazin-3-yl}-2-methylbenzamide]
0.4 nM	COc1ccc(Nc2cc(NCC(C)(C)O)c3ncc(-c4ccc(C(=O)NC5CC5)c(C)c4)n3n2)cc1 [Example 354, N-cyclopropyl-4-{8-[(2-hydroxy-2-methylpropyl)amino]-6-[(4-methoxyphenyl)amino]imidazo[1,2-b]pyridazin-3-yl}-2-methylbenzamide]
0.9 nM	Cc1cc(-c2cnc3c(NCC(C)(C)O)cc(Nc4cccc(Cl)c4)nn23)ccc1C(=O)NC1CC1 [Example 355, 4-{6-[(3-chlorophenyl)amino]-8-[(2-hydroxy-2-methylpropyl)amino]imidazo[1,2-b]pyridazin-3-yl}-N-cyclopropyl-2-methylbenzamide]
0.6 nM	Cc1cc(-c2cnc3c(NCC(C)(C)O)cc(Nc4ccc(F)cc4F)nn23)ccc1C(=O)NC1CC1 [Example 356, N-cyclopropyl-4-{6-[(2,4-difluorophenyl)amino]-8-[(2-hydroxy-2-methylpropyl)amino]imidazo[1,2-b]pyridazin-3-yl}-2-methylbenzamide]
4.4 nM	Cc1cc(-c2cnc3c(NCC(C)(C)O)cc(Nc4ccccn4)nn23)ccc1C(=O)NC1CC1 [Example 357, N-cyclopropyl-4-{8-[(2-hydroxy-2-methylpropyl)amino]-6-(pyridin-2-ylamino)imidazo[1,2-b]pyridazin-3-yl}-2-methylbenzamide]
1.2 nM	Cc1cc(-c2cnc3c(NCC(C)(C)O)cc(Nc4cccnc4)nn23)ccc1C(=O)NC1CC1 [Example 359, N-cyclopropyl-4-{8-[(2-hydroxy-2-methylpropyl)amino]-6-(pyridin-3-ylamino)imidazo[1,2-b]pyridazin-3-yl}-2-methylbenzamide]
0.9 nM	Cc1ccc(Sc2cc(NCC(C)(C)O)c3ncc(-c4ccc(C(=O)NC5CC5)c(C)c4)n3n2)c(F)c1 [Example 360, N-cyclopropyl-4-{6-[(2-fluoro-4-methylphenyl)sulfanyl]-8-[(2-hydroxy-2-methylpropyl)amino]imidazo[1,2-b]pyridazin-3-yl}-2-methylbenzamide]
0.3 nM	Cc1cc(-c2cnc3c(NCC(C)(C)O)cc(Oc4cccc(OC(C)C)c4)nn23)ccc1C(=O)NC1CC1 [Example 361, N-cyclopropyl-4-{8-[(2-hydroxy-2-methylpropyl)amino]-6-(3-isopropoxyphenoxy)imidazo[1,2-b]pyridazin-3-yl}-2-methylbenzamide]
4.4 nM	Cc1cc(-c2cnc3c(NCC(C)(C)O)cc(Nc4ccncc4)nn23)ccc1C(=O)NC1CC1 [Example 365, N-cyclopropyl-4-{8-[(2-hydroxy-2-methylpropyl)amino]-6-(pyridin-4-ylamino)imidazo[1,2-b]pyridazin-3-yl}-2-methylbenzamide]
1.1 nM	COc1ccc(Nc2cc(NCC(C)(C)O)c3ncc(-c4ccc(C(=O)NC5CC5)c(C)c4)n3n2)cn1 [Example 366, N-cyclopropyl-4-{8-[(2-hydroxy-2-methylpropyl)amino]-6-[(6-methoxypyridin-3-yl)-amino]imidazo[1,2-b]pyridazin-3-yl}-2-methylbenzamide]
0.1 nM	Cc1cc(-c2cnc3c(NCCC(F)(F)F)cc(Nc4ccccc4)nn23)ccc1C(=O)NC1CC1 [Example 368, 4-{6-anilino-8-[(3,3,3-trifluoropropyl)amino]imidazo[1,2-b]pyridazin-3-yl}-N-cyclopropyl-2-methylbenzamide]

Second part, the compound before the results:

SMILES	IC50
Cc1cc(-c2cnc3c(NCCC(F)(F)F)cc(Nc4ccc(F)cc4)nn23)ccc1C(=O)NC1CC1 [Example 358, N-cyclopropyl-4-{6-[(4-fluorophenyl)amino]-8-[(3,3,3-trifluoropropyl)amino]imidazo[1,2-b]pyridazin-3-yl}-2-methylbenzamide]	0.1 nM
Cc1ccc(Sc2cc(NCCC(F)(F)F)c3ncc(-c4ccc(C(=O)NC5CC5)c(C)c4)n3n2)c(F)c1 [Example 362, N-cyclopropyl-4-{6-[(2-fluoro-4-methylphenyl)sulfanyl]-8-[(3,3,3-trifluoropropyl)amino]imidazo[1,2-b]pyridazin-3-yl}-2-methylbenzamide]	0.2 nM
Cc1ccc(F)c(Nc2cc(NCCC(F)(F)F)c3ncc(-c4ccc(C(=O)NC5CC5)c(C)c4)n3n2)c1 [Example 367, N-cyclopropyl-4-{6-[(2-fluoro-5-methylphenyl)amino]-8-[(3,3,3-trifluoropropyl)amino]imidazo[1,2-b]pyridazin-3-yl}-2-methylbenzamide]	0.1 nM
Cc1cc(-c2cnc3c(NCCC(F)(F)F)cc(Nc4ccccc4F)nn23)ccc1C(=O)NC1CC1 [Example 369, N-cyclopropyl-4-{6-[(2-fluorophenyl)amino]-8-[(3,3,3-trifluoropropyl)amino]imidazo[1,2-b]pyridazin-3-yl}-2-methylbenzamide]	0.1 nM
Cc1cc(-c2cnc3c(NCCC(F)(F)F)cc(Nc4ccccc4CO)nn23)ccc1C(=O)NC1CC1 [Example 370]	0.1 nM
Cc1cc(F)cc(Nc2cc(NCCC(F)(F)F)c3ncc(-c4ccc(C(=O)NC5CC5)c(C)c4)n3n2)c1 [Example 371, N-cyclopropyl-4-{6-[(3-fluoro-5-methylphenyl)amino]-8-[(3,3,3-trifluoropropyl)amino]imidazo[1,2-b]pyridazin-3-yl}-2-methylbenzamide]	0.2 nM
Cc1cc(-c2cnc3c(NCCC(F)(F)F)cc(Nc4ccc(Cl)c(F)c4)nn23)ccc1C(=O)NC1CC1 [Example 372, 4-{6-[(4-chloro-3-fluorophenyl)amino]-8-[(3,3,3-trifluoropropyl)amino]imidazo[1,2-b]pyridazin-3-yl}-N-cyclopropyl-2-methylbenzamide]	0.2 nM
Cc1cc(-c2cnc3c(NCCC(F)(F)F)cc(Nc4ccc(F)c(F)c4)nn23)ccc1C(=O)NC1CC1 [Example 373, N-cyclopropyl-4-{6-[(3,4-difluorophenyl)amino]-8-[(3,3,3-trifluoropropyl)amino]imidazo[1,2-b]pyridazin-3-yl}-2-methylbenzamide]	0.2 nM
Cc1cc(-c2cnc3c(NCCC(F)(F)F)cc(Nc4ccc(Cl)cc4)nn23)ccc1C(=O)NC1CC1 [Example 374, 4-{6-[(4-chlorophenyl)amino]-8-[(3,3,3-trifluoropropyl)amino]imidazo[1,2-b]pyridazin-3-yl}-N-cyclopropyl-2-methylbenzamide]	0.3 nM
Cc1ccc(F)cc1Nc1cc(NCCC(F)(F)F)c2ncc(-c3ccc(C(=O)NC4CC4)c(C)c3)n2n1 [Example 375, N-cyclopropyl-4-{6-[(5-fluoro-2-methylphenyl)amino]-8-[(3,3,3-trifluoropropyl)amino]imidazo[1,2-b]pyridazin-3-yl}-2-methylbenzamide]	0.1 nM
Cc1cc(-c2cnc3c(NCCC(F)(F)F)cc(Nc4ccc(Cl)cc4F)nn23)ccc1C(=O)NC1CC1 [Example 376, 4-{6-[(4-chloro-2-fluorophenyl)amino]-8-[(3,3,3-trifluoropropyl)amino]imidazo[1,2-b]pyridazin-3-yl}-N-cyclopropyl-2-methylbenzamide]	0.2 nM
Cc1ccc(Cl)cc1Nc1cc(NCCC(F)(F)F)c2ncc(-c3ccc(C(=O)NC4CC4)c(C)c3)n2n1 [Example 377, 4-{6-[(5-chloro-2-methylphenyl)amino]-8-[(3,3,3-trifluoropropyl)amino]imidazo[1,2-b]pyridazin-3-yl}-N-cyclopropyl-2-methylbenzamide]	0.3 nM
Cc1cc(-c2cnc3c(NCCC(F)(F)F)cc(Nc4cc(F)cc(F)c4)nn23)ccc1C(=O)NC1CC1 [Example 378, N-cyclopropyl-4-{6-[(3,5-difluorophenyl)amino]-8-[(3,3,3-trifluoropropyl)amino]imidazo[1,2-b]pyridazin-3-yl}-2-methylbenzamide]	0.2 nM
Cc1cc(-c2cnc3c(NCCC(F)(F)F)cc(Nc4cccc(Cl)c4)nn23)ccc1C(=O)NC1CC1 [Example 379, 4-{6-[(3-chlorophenyl)amino]-8-[(3,3,3-trifluoropropyl)amino]imidazo[1,2-b]pyridazin-3-yl}-N-cyclopropyl-2-methylbenzamide]	0.2 nM
Cc1cc(-c2cnc3c(NCCC(F)(F)F)cc(Nc4cccc(F)c4F)nn23)ccc1C(=O)NC1CC1 [Example 380, N-cyclopropyl-4-{6-[(2,3-difluorophenyl)amino]-8-[(3,3,3-trifluoropropyl)amino]imidazo[1,2-b]pyridazin-3-yl}-2-methylbenzamide]	0.1 nM

From patent US9255100B2 (BAYER INTELLECTUAL PROPERTY GMBH, priority 2010, dated 2016)
